Experimental data taken from ChEMBL document CHEMBL1201862, “PubChem BioAssay data set” (2004).
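Compound exposure: 48 hours, 5 concentrations, 96-well plates. GI50 marks 50% less growth.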 Calls of active or inactive are those of the source. Rule as the data show it: active = GI50 up to about 1.1 µM and inactive = higher.

How the values were obtained:
Test in all cases: DTP human tumour cell line panel, 48 h
A498 = test system: A498
LXFL 529 = test system: LXFL 529
Hs-578T = test system: Hs-578T
CAKI-1 = test system: CAKI-1
SK-MEL-28 = test system: SK-MEL-28
SK-MEL-2 = test system: SK-MEL-2
LOX IMVI = test system: LOX IMVI
BT-549 = test system: BT-549
HOP-92 = test system: HOP-92
M19-MEL = test system: M19-MEL
HCT-15 = test system: HCT-15
NCI-H226 = test system: NCI-H226
CCRF-CEM = test system: CCRF-CEM
OVCAR-4 = test system: OVCAR-4
OVCAR-8 = test system: OVCAR-8
DU-145 = test system: DU-145
HOP-18 = test system: HOP-18
SF-295 = test system: SF-295
HOP-62 = test system: HOP-62
TK-10 = test system: TK-10
HCC 2998 = test system: HCC 2998
Malme-3M = test system: Malme-3M
SF-268 = test system: SF-268
SK-MEL-5 = test system: SK-MEL-5
NCI-H23 = test system: NCI-H23
COLO 205 = test system: COLO 205
DMS-273 = test system: DMS-273
ACHN = test system: ACHN
MDA-MB-231 = test system: MDA-MB-231
HL-60 = test system: HL-60
SW-620 = test system: SW-620
SR = test system: SR
NCI/ADR-RES = test system: NCI/ADR-RES
HCT-116 = test system: HCT-116
DMS-114 = test system: DMS-114
UACC-257 = test system: UACC-257
HT-29 = test system: HT-29
NCI-H522 = test system: NCI-H522
KM-20L2 = test system: KM-20L2
M14 = test system: M14
SNB-75 = test system: SNB-75
786-0 = test system: 786-0
RXF 393 = test system: RXF 393
K562 = test system: K562
OVCAR-3 = test system: OVCAR-3
SK-OV-3 = test system: SK-OV-3
PC-3 = test system: PC-3
UACC-62 = test system: UACC-62
SNB-19 = test system: SNB-19
SF-539 = test system: SF-539
IGROV-1 = test system: IGROV-1
EKVX = test system: EKVX
A549 = test system: A549
XF498 = test system: XF498
MOLT-4 = test system: MOLT-4
NCI-H460 = test system: NCI-H460
UO-31 = test system: UO-31
OVCAR-5 = test system: OVCAR-5
U-251 = test system: U-251
KM12 = test system: KM12
RPMI-8226 = test system: RPMI-8226
DLD-1 = test system: DLD-1
T47D = test system: T47D
SNB-78 = test system: SNB-78
SN12C = test system: SN12C
MCF7 = test system: MCF7
MDA-MB-435 = test system: MDA-MB-435

Cc1cccc(NC(=O)c2cccc([N+](=O)[O-])c2O)c1C
GI50 (A498): 28.5 µM (inactive)
GI50 (LXFL 529): 34 µM (inactive)
GI50 (Hs-578T): 43.6 µM (inactive)
GI50 (CAKI-1): 27.4 µM (inactive)
GI50 (SK-MEL-28): 44.5 µM (inactive)
GI50 (SK-MEL-2): 4.92 µM (inactive)
GI50 (LOX IMVI): 23 µM (inactive)
GI50 (BT-549): 30.2 µM (inactive)
GI50 (HOP-92): 16.4 µM (inactive)
GI50 (M19-MEL): 21.9 µM (inactive)
GI50 (HCT-15): 31.4 µM
GI50 (NCI-H226): 22.1 µM (inactive)
GI50 (CCRF-CEM): 14.9 µM (inactive)
GI50 (OVCAR-4): 26.6 µM (inactive)
GI50 (OVCAR-8): 33.7 µM (inactive)
GI50 (DU-145): 37.3 µM (inactive)
GI50 (HOP-18): 4.74 µM (inactive)
GI50 (SF-295): 24.4 µM (inactive)
GI50 (HOP-62): 17.8 µM (inactive)
GI50 (TK-10): 53.6 µM (inactive)
GI50 (HCC 2998): 28.4 µM (inactive)
GI50 (Malme-3M): 33.8 µM (inactive)
GI50 (SF-268): 33.2 µM (inactive)
GI50 (SK-MEL-5): 9.62 µM (inactive)
GI50 (NCI-H23): 17.5 µM (inactive)
GI50 (COLO 205): 18.1 µM (inactive)
GI50 (DMS-273): 22.2 µM (inactive)
GI50 (ACHN): 28.6 µM (inactive)
GI50 (MDA-MB-231): 37.9 µM (inactive)
GI50 (HL-60): 13.4 µM (inactive)
GI50 (SW-620): 37.9 µM (inactive)
GI50 (SR): 20.1 µM (inactive)
GI50 (NCI/ADR-RES): 16.5 µM (inactive)
GI50 (HCT-116): 28.2 µM (inactive)
GI50 (DMS-114): 32.4 µM (inactive)
GI50 (UACC-257): 24.9 µM (inactive)
GI50 (HT-29): 27.7 µM (inactive)
GI50 (NCI-H522): 16.8 µM (inactive)
GI50 (KM-20L2): 21.8 µM (inactive)
GI50 (M14): 41.5 µM (inactive)
GI50 (SNB-75): 22.8 µM (inactive)
GI50 (786-0): 37.7 µM (inactive)
GI50 (RXF 393): 12.6 µM (inactive)
GI50 (K562): 12.1 µM (inactive)
GI50 (OVCAR-3): 18.1 µM (inactive)
GI50 (SK-OV-3): 28.4 µM (inactive)
GI50 (PC-3): 20.2 µM (inactive)
GI50 (UACC-62): 28 µM (inactive)
GI50 (SNB-19): 18.7 µM (inactive)
GI50 (SF-539): 27.5 µM (inactive)
GI50 (IGROV-1): 26.7 µM (inactive)
GI50 (EKVX): 26.7 µM (inactive)
GI50 (A549): 21.5 µM (inactive)
GI50 (XF498): 20.3 µM (inactive)
GI50 (MOLT-4): 19.4 µM (inactive)
GI50 (NCI-H460): 20.6 µM (inactive)
GI50 (UO-31): 17.9 µM (inactive)
GI50 (OVCAR-5): 30.6 µM (inactive)
GI50 (U-251): 25.3 µM (inactive)
GI50 (KM12): 23.6 µM (inactive)
GI50 (RPMI-8226): 3.14 µM (inactive)
GI50 (DLD-1): 27.3 µM (inactive)
GI50 (T47D): 24.9 µM (inactive)
GI50 (SNB-78): 85.5 µM (inactive)
GI50 (SN12C): 27.4 µM (inactive)
GI50 (MCF7): 27.4 µM (inactive)
GI50 (MDA-MB-435): 29.2 µM (inactive)

CN(C)c1ccc(/C=c2\sc3nnc(Cc4ccccc4)n3c2=O)cc1
GI50 (A498): > 10 µM (inactive)
GI50 (LXFL 529): > 10 µM (inactive)
GI50 (CAKI-1): > 10 µM (inactive)
GI50 (SK-MEL-28): > 10 µM (inactive)
GI50 (SK-MEL-2): > 10 µM (inactive)
GI50 (LOX IMVI): > 10 µM (inactive)
GI50 (HOP-92): > 100 µM (inactive)
GI50 (M19-MEL): > 100 µM (inactive)
GI50 (HCT-15): 20.2 µM
GI50 (NCI-H226): > 10 µM (inactive)
GI50 (CCRF-CEM): > 10 µM (inactive)
GI50 (OVCAR-4): > 10 µM (inactive)
GI50 (OVCAR-8): > 10 µM (inactive)
GI50 (HOP-18): > 10 µM (inactive)
GI50 (SF-295): > 10 µM (inactive)
GI50 (HOP-62): > 10 µM (inactive)
GI50 (TK-10): > 10 µM (inactive)
GI50 (HCC 2998): > 100 µM (inactive)
GI50 (Malme-3M): > 10 µM (inactive)
GI50 (SF-268): 28.3 µM (inactive)
GI50 (SK-MEL-5): > 10 µM (inactive)
GI50 (NCI-H23): > 10 µM (inactive)
GI50 (COLO 205): > 10 µM (inactive)
GI50 (DMS-273): 33.7 µM (inactive)
GI50 (ACHN): 75.3 µM (inactive)
GI50 (HL-60): > 10 µM (inactive)
GI50 (SW-620): 13.7 µM (inactive)
GI50 (SR): > 10 µM (inactive)
GI50 (HCT-116): 17.1 µM (inactive)
GI50 (DMS-114): 17 µM (inactive)
GI50 (UACC-257): > 10 µM (inactive)
GI50 (HT-29): 62.5 µM (inactive)
GI50 (NCI-H522): > 10 µM (inactive)
GI50 (KM-20L2): > 10 µM (inactive)
GI50 (M14): > 10 µM (inactive)
GI50 (SNB-75): > 10 µM (inactive)
GI50 (786-0): > 10 µM (inactive)
GI50 (RXF 393): 31.8 µM (inactive)
GI50 (K562): > 10 µM (inactive)
GI50 (OVCAR-3): > 10 µM (inactive)
GI50 (SK-OV-3): > 10 µM (inactive)
GI50 (UACC-62): > 10 µM (inactive)
GI50 (SNB-19): > 10 µM (inactive)
GI50 (SF-539): > 10 µM (inactive)
GI50 (IGROV-1): > 10 µM (inactive)
GI50 (EKVX): > 10 µM (inactive)
GI50 (A549): 37 µM (inactive)
GI50 (XF498): > 10 µM (inactive)
GI50 (MOLT-4): > 10 µM (inactive)
GI50 (NCI-H460): > 10 µM (inactive)
GI50 (UO-31): > 100 µM (inactive)
GI50 (OVCAR-5): > 10 µM (inactive)
GI50 (U-251): > 10 µM (inactive)
GI50 (KM12): > 10 µM (inactive)
GI50 (RPMI-8226): > 10 µM (inactive)
GI50 (DLD-1): > 10 µM (inactive)
GI50 (SNB-78): > 10 µM (inactive)
GI50 (SN12C): > 10 µM (inactive)
